# Structures can show the parent of a compound that is named as a salt.
# Columns and labels:
# [1] = target: catalytic domain (JH1, amino acids 826-1132) of human JAK2 (Homo sapiens (Human), UniProt O60674); experiment: JAK2 LanthaScreen JH1 Binding Assay; conditions: JAK2 JH1 1.5 nM, 50 nM fluorescent tracer, 2 hours at 25° C.; read-out: JH1 BIND IC50
# Description: Example A. JAK2 LanthaScreen JH1 Binding Assay
# (§1) JAK2 JH1 binding assay utilizes catalytic domain (JH1, amino acids 826-1132) of human JAK2 expressed as N-terminal FLAG-tagged, biotinylated protein in a baculovirus expression system (Carna Biosciences, Product #08-445-20N). The assay was conducted in black 384-well polystyrene plates in a final reaction volume of 20 μL. JAK2 JH1 (1.5 nM) was incubated with compounds (100 nL serially diluted in DMSO) in the presence of 50 nM Fluorescent JAK2-JH1 Tracer and 0.5 nM Streptavidin-Tb cryptate (Cisbio Part #610SATLB) in assay buffer (50 mM Tris, pH=7.5, 10 mM MgCl2, 0.01% Brij-35, 0.1% BSA, 1 mM EGTA, 5% Glycerol and 5 mM DTT). Non-specific binding was accessed in the presence of 2 mM ATP. After incubation for 2 hours at 25° C., LanthaScreen signals were read on a PHERAstar FS plate reader (BMG LABTECH). Data was analyzed with IDBS XLfit and GraphPad Prism 5.0 software using a four parameter dose response curve to determine IC50 for each compound.
# [2] = target: pseudo-kinase domain (JH2, amino-acids 536-812) of human V617F mutant JAK2 (Homo sapiens (Human), UniProt O60674, F794H/V617F/W659A/W777A); experiment: JAK2 LanthaScreen JH2-V617F Binding Assay; conditions: JAK2 JH2-V617F 0.26 nM, 50 nM fluorescent tracer, 1 hour at 25° C.; read-out: JH2 BIND V617F IC50
# Description: The assay was conducted in black 384-well polystyrene plates in a final reaction volume of 20 μL. […] Non-specific binding was accessed in the presence of 2 mM ATP. After incubation for 1 hour at 25° C., LanthaScreen signals were read on a PHERAstar FS plate reader (BMG LABTECH). Data was analyzed with IDBS XLfit and GraphPad Prism 5.0 software using a four parameter dose response curve to determine IC50 for each compound.
# [3] = target: pseudo-kinase domain (JH2, amino-acids 536-812) of human Wild Type JAK2 (Homo sapiens (Human), UniProt O60674, F794H/W659A/W777A); experiment: JAK2 LanthaScreen JH2-WT Binding Assay; conditions: JAK2 JH2-WT 0.145 nM, 50 nM fluorescent tracer, 1 hour at 25° C.; read-out: JH2 BIND WT IC50
# Description: Example B. JAK2 LanthaScreen JH2-WT Binding Assay
# as §1, with “The” for “JAK2 JH1 binding assay utilizes catalytic domain (JH1, amino acids 826-1132) of human JAK2 expressed as N-terminal FLAG-tagged, biotinylated protein in a baculovirus expression system (Carna Biosciences, Product #08-445-20N). The”, “JH2-WT (0.145” for “JH1 (1.5”, “JAK2-JH2” for “JAK2-JH1”, “Tracer (MedChem Express Catalog #HY-102055)” for “Tracer”, “0.25” for “0.5”, “1 hour” for “2 hours”
# [4] = target: catalytic domain (JH1, amino acids 808-1132) of human JAK2 (Homo sapiens (Human), UniProt O60674); experiment: JAK2 HTRF Enzyme Activity Assay; assay type: biochemical; conditions: JAK2 0.015 nM, ATP (30 μM or 1 mM), 60 minutes at 25° C.
# Description: Example D. JAK2 HTRF Enzyme Activity Assay
# JAK2 enzyme activity assays utilize catalytic domain (JH1, amino acids 808-1132) of human JAK2 expressed as N-terminal His-tagged protein in a baculovirus expression system (BPS Bioscience, Catalog #40450). The assays was conducted in black 384-well polystyrene plates in a final reaction volume of 20 μL. JAK2 (0.015 nM) was incubated with compounds (100 nL serially diluted in DMSO) in the presence of ATP (30 μM or 1 mM) and 500 nM Biotin-labeled […] (SEQ ID NO.: 1) peptide (BioSource International, custom synthesis) in assay buffer (50 mM Tris, pH=7.5, 10 mM MgCl2, 0.01% Brij-35, 0.1% BSA, 1 mM EGTA, 5% Glycerol and 5 mM DTT) for 60 minutes at 25° C. The reactions were stopped by the addition of 10 μL of detection buffer (50 mM Tris, pH 7.8, 0.5 mg/mL BSA, 150 mM NaCl), supplemented with EDTA, LANCE Eu-W1024 anti-phosphotyrosine (PY20), (PerkinElmer, Catalog #AD0067) and Streptavidin SureLight APC (PerkinElmer Catalog #CR130-100), for a final concentration of 15 mM, 1.5 nM and 75 nM, respectively. HTRF signals were read after 30 minutes incubation at room temperature on a PHERAstar FS plate reader (BMG LABTECH). Data was analyzed with IDBS XLfit and GraphPad Prism 5.0 software using a four parameter dose response curve to determine IC50 for each compound.
# pseudo-kinase domain (JH2, amino-acids 536-812) of human V617F mutant JAK2, sequence (O60674 536-812 V617F/W659A/W777A/F794H): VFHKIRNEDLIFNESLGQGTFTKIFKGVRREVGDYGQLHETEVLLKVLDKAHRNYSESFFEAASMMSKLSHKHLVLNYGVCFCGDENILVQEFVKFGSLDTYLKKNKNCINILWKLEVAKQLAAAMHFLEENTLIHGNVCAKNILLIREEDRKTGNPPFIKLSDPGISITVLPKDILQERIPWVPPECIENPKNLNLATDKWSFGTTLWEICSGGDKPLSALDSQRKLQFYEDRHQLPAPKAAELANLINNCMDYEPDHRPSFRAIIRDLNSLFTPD
# pseudo-kinase domain (JH2, amino-acids 536-812) of human Wild Type JAK2, sequence (O60674 536-812 W659A/W777A/F794H): as the sequence (O60674 536-812 V617F/W659A/W777A/F794H) above, with F82V counted along it
# catalytic domain (JH1, amino acids 826-1132) of human JAK2, sequence (O60674 826-1132): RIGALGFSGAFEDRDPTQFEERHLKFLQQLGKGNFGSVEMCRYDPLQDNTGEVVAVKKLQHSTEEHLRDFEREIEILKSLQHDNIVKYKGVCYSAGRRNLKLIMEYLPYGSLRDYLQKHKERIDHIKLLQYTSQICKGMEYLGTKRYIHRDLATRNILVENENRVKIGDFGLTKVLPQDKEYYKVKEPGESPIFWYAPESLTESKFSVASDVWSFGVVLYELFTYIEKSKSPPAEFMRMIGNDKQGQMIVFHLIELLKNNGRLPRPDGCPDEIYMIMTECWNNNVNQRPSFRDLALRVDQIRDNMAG
# catalytic domain (JH1, amino acids 808-1132) of human JAK2, sequence (O60674 808-1132): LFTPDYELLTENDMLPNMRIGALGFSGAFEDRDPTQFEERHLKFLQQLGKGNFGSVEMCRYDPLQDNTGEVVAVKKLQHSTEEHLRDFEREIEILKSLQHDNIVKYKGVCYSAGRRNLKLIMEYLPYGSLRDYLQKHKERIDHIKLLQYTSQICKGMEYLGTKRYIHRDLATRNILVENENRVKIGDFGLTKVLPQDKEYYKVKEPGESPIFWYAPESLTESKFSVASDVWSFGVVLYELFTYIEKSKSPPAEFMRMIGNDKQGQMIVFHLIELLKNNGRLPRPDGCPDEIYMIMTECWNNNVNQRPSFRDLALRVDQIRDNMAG
smiles,measurement,setting,value
"CC1c2c(cnc3[nH]c(-c4ccc(CN5CCC(S(C)(=O)=O)CC5)cc4)cc23)N(C)C(=O)N1c1ccc(C(=O)O)cc1 (racemic) [Example 10, 4-(1,4-Dimethyl-8-(4-((4-(methylsulfonyl)piperidin-1-yl)methyl)phenyl)-3-oxo-1,3,4,7-tetrahydro-2H-pyrrolo[3′,2′:5,6]pyrido[3,4-d]pyrimidin-2-yl)benzoic Acid]",IC50,[1],1000 to 2500 nM
same,IC50,[2],100 to 500 nM
same,IC50,[3],≤ 100 nM
same,IC50,[4],1000 to 2500 nM
"CC(C(N)=O)n1cc(-c2ccc(-c3c(-c4ccc(CN5CCC(S(C)(=O)=O)CC5)cc4)[nH]c4ncc5c(c34)CN(C(C)(C)C)C(=O)N5C)cc2)cn1 (racemic) [Example 19, 2-(4-(4-(2-(tert-Butyl)-4-methyl-8-(4-((4-(methylsulfonyl)piperidin-1-yl)methyl)phenyl)-3-oxo-2,3,4,7-tetrahydro-1H-pyrrolo[3′,2′:5,6]pyrido[3,4-d]pyrimidin-9-yl)phenyl)-1H-pyrazol-1-yl)propanamide Trifluoroacetic Acid Salt]",IC50,[1],≤ 100 nM
same,IC50,[2],≤ 100 nM
same,IC50,[3],≤ 100 nM
same,IC50,[4],≤ 100 nM
"CN1C(=O)NCc2c1cnc1[nH]c(-c3ccc(CN4CCC(S(C)(=O)=O)CC4)cc3)cc21 [Example 1, 4-Methyl-8-(4-((4-(methylsulfonyl)piperidin-1-yl)methyl)phenyl)-1,2,4,7-tetrahydro-3H-pyrrolo[3′,2′:5,6]pyrido[3,4-d]pyrimidin-3-one]",IC50,[1],≤ 100 nM
same,IC50,[2],500 to 1000 nM
same,IC50,[3],100 to 500 nM
same,IC50,[4],≤ 100 nM
"CN1C(=O)N(c2ccccc2)Cc2c1cnc1[nH]c(-c3ccc(CN4CCC(S(C)(=O)=O)CC4)cc3)cc21 [Example 2, 4-Methyl-8-(4-((4-(methylsulfonyl)piperidin-1-yl)methyl)phenyl)-2-phenyl-1,2,4,7-tetrahydro-3H-pyrrolo[3′,2′:5,6]pyrido[3,4-b]pyrimidin-3-one]",IC50,[1],≤ 100 nM
same,IC50,[2],500 to 1000 nM
same,IC50,[3],100 to 500 nM
same,IC50,[4],≤ 100 nM
"CN1C(=O)N(c2ccc(C(=O)O)cc2)Cc2c1cnc1[nH]c(-c3ccc(CN4CCC(S(C)(=O)=O)CC4)cc3)cc21 [Example 3, 4-(4-Methyl-8-(4-((4-(methylsulfonyl)piperidin-1-yl)methyl)phenyl)-3-oxo-1,3,4,7-tetrahydro-2H-pyrrolo[3′,2′:5,6]pyrido[3,4-d]pyrimidin-2-yl)benzoic Acid]",IC50,[1],1000 to 2500 nM
same,IC50,[2],≤ 100 nM
same,IC50,[3],≤ 100 nM
same,IC50,[4],1000 to 2500 nM
"CS(=O)(=O)C1CCN(Cc2ccc(-c3cc4c5c(cnc4[nH]3)NC(=O)N(C3CCCCC3)C5)cc2)CC1 [Example 5, 2-Cyclohexyl-8-(4-((4-(methylsulfonyl)piperidin-1-yl)methyl)phenyl)-1,2,4,7-tetrahydro-3H-pyrrolo[3′,2′:5,6]pyrido[3,4-d]pyrimidin-3-one]",IC50,[1],≤ 100 nM
same,IC50,[2],500 to 1000 nM
same,IC50,[3],100 to 500 nM
same,IC50,[4],≤ 100 nM
"CS(=O)(=O)C1CCN(Cc2ccc(-c3cc4c5c(cnc4[nH]3)NC(=O)N(C3CCN(S(N)(=O)=O)CC3)C5)cc2)CC1 [Example 7, 4-(8-(4-((4-(methylsulfonyl)piperidin-1-yl)methyl)phenyl)-3-oxo-1,3,4,7-tetrahydro-2H-pyrrolo[3′,2′:5,6]pyrido[3,4-d]pyrimidin-2-yl)piperidine-1-sulfonamide]",IC50,[1],≤ 100 nM
same,IC50,[2],1000 to 2500 nM
same,IC50,[3],500 to 1000 nM
same,IC50,[4],≤ 100 nM
"COCCNc1ccc(N2Cc3c(cnc4[nH]c(-c5ccc(CN6CCC(S(C)(=O)=O)CC6)cc5)cc34)N(C)C2=O)cc1 [Example 8, 2-(4-((2-Methoxyethyl)amino)phenyl)-4-methyl-8-(4-((4-(methylsulfonyl)piperidin-1-yl)methyl)phenyl)-1,2,4,7-tetrahydro-3H-pyrrolo[3′,2′:5,6]pyrido[3,4-d]pyrimidin-3-one]",IC50,[1],100 to 500 nM
same,IC50,[2],500 to 1000 nM
same,IC50,[3],100 to 500 nM
same,IC50,[4],100 to 500 nM
"CN1C(=O)N(c2ccc(NC(=O)CC#N)cc2)Cc2c1cnc1[nH]c(-c3ccc(CN4CCC(S(C)(=O)=O)CC4)cc3)cc21 [Example 9, 2-Cyano-N-(4-(4-methyl-8-(4-((4-(methylsulfonyl)piperidin-1-yl)methyl)phenyl)-3-oxo-1,3,4,7-tetrahydro-2H-pyrrolo[3′,2′:5,6]pyrido[3,4-d]pyrimidin-2-yl)phenyl)acetamide]",IC50,[1],100 to 500 nM
same,IC50,[2],100 to 500 nM
same,IC50,[3],100 to 500 nM
same,IC50,[4],100 to 500 nM
"COc1ccc(-c2c(-c3ccc(CN4CCC(S(C)(=O)=O)CC4)cc3)[nH]c3ncc4c(c23)CN(c2ccc(C(=O)Nc3cccnc3)cc2)C(=O)N4C)cc1 [Example 11, 4-(9-(4-Methoxyphenyl)-4-methyl-8-(4-((4-(methylsulfonyl)piperidin-1-yl)methyl)phenyl)-3-oxo-1,3,4,7-tetrahydro-2H-pyrrolo[3′,2′:5,6]pyrido[3,4-d]pyrimidin-2-yl)-N-(pyridin-3-yl)benzamide, Bistrifluoroacetic Acid Salt]",IC50,[1],> 2500 nM
same,IC50,[2],≤ 100 nM
same,IC50,[3],≤ 100 nM
same,IC50,[4],> 2500 nM
"CNC(=O)c1ccc(N2Cc3c(cnc4[nH]c(-c5ccc(CN6CCC(S(C)(=O)=O)CC6)cc5)c(-c5ccc(OC)cc5)c34)N(C)C2=O)cc1 [Example 12, 4-(9-(4-methoxyphenyl)-4-methyl-8-(4-((4-(methylsulfonyl)piperidin-1-yl)methyl)phenyl)-3-oxo-1,3,4,7-tetrahydro-2H-pyrrolo[3′,2′:5,6]pyrido[3,4-d]pyrimidin-2-yl)-N-methylbenzamide, trifluroacetate]",IC50,[1],1000 to 2500 nM
same,IC50,[2],≤ 100 nM
same,IC50,[3],≤ 100 nM
same,IC50,[4],1000 to 2500 nM
"COc1ccc(-c2c(-c3ccc(CN4CCC(S(C)(=O)=O)CC4)cc3)[nH]c3ncc4c(c23)CN(c2ccc(C(=O)NCC(=O)NNCc3ccccc3)cc2)C(=O)N4C)cc1 [Example 13, N-(2-(2-Benzylhydrazineyl)-2-oxoethyl)-4-(9-(4-methoxyphenyl)-4-methyl-8-(4-((4-(methylsulfonyl)piperidin-1-yl)methyl)phenyl)-3-oxo-1,3,4,7-tetrahydro-2H-pyrrolo[3′,2′: 5,6]pyrido[3,4-d]pyrimidin-2-yl)benzamide, TFA]",IC50,[1],1000 to 2500 nM
same,IC50,[4],1000 to 2500 nM
